The values below come from ChEMBL document CHEMBL4385651, “Identification and characterization of the first fragment hits for SETDB1 Tudor domain” (Bioorg Med Chem, 2019).

In assay [1] the target is T1, Histone-lysine N-methyltransferase SETDB1 (Homo sapiens, UniProt Q15047). Description: Binding affinity to N-terminal His6-tagged human SETDB1 Tudor domain (197 to 403 residues) expressed in Escherichia coli BL21(DE3)-pRARE2 cells assessed as induction of HSQC shift at 5 mM by 1H-15 N HSQC-TROSY NMR spectroscopy.
The target of assay [2] is T1, Histone-lysine N-methyltransferase SETDB1. The assay can be described thus: Binding affinity to N-terminal His6-tagged human SETDB1 Tudor domain (197 to 403 residues) expressed in Escherichia coli BL21(DE3)-pRARE2 cells by ITC assay. On the technique in general: ITC needs no label: the signal is the heat of the interaction.
Assay [3] shares this target. Description: Binding affinity to N-terminally biotinylated human SETDB1 Tudor domain (197 to 403 residues) expressed in Escherichia coli BL21(DE3)-pRARE2 cells by SPR analysis. Background: In SPR one partner is held on a chip, and binding of the other changes the refractive index at the surface.
Assay [4] has the same target. Description: Binding affinity to N-terminal His6-tagged human SETDB1 Tudor domain (197 to 403 residues) expressed in Escherichia coli BL21(DE3)-pRARE2 cells assessed as induction of HSQC shift at 10 mM by 1H-15 N HSQC-TROSY NMR spectroscopy.

One may read the Kd as a measure of binding affinity in units of concentration.

Structures are written as SMILES. Calls of active or inactive are those of the source. The rule behind the calls is not given here. Where a SMILES comes first, the peptide text is derived from it. [ ]: non-standard residue; d: D form. The star is where a group is joined. X1 = CC(=O)NCc1ccccc1-n1c(C)nnc1CN*; Lys(Me2) = CN(C)CCCC[C@H](N)C(=O)O

For `CNC(=O)NCc1ccccc1-n1c(C)nnc1C`, in assay [1], the outcome was inactive. Turning to `CC(=O)NCc1ccccc1-n1c(C)nnc1C`, the Kd in assay [2] and in assay [3] was 3.5 mM each time. Besides, in assay [1], the result was Active. In assay [3], `CC(=O)NCc1cc(C#N)ccc1-n1c(C)nnc1C` registered a dissociation constant (Kd) of 10 mM. With `CC(=O)NCc1cc(Cl)ccc1-n1c(C)nnc1C`, the dissociation constant Kd in assay [3] stood at 2.5 mM. In the case of `Cc1nnc(C)n1-c1ccccc1CNS(C)(=O)=O`, the Kd in assay [2] and in assay [3] was 4 to 17 mM in each case. Moreover, the outcome in assay [1] was Active.

As to `Cc1nnc2n1-c1ccccc1COC2`, the outcome in assay [1] was Active.

For the compound `Cc1nnc(C)n1-c1ccccc1C(=O)O`, in assay [1], the result was inactive. Turning to `CC(=O)NCc1cc(Br)ccc1-n1c(C)nnc1C`, the affinity in assay [3], expressed as Kd, was 2.7 mM. With `CC(=O)NCc1ccccc1-n1c(C)nnc1CNC(=O)CNC(=O)[C@@H](NC(=O)[C@H](CO)NC(=O)[C@@H](N)CCCCN(C)C)[C@@H](C)O` (H-[Lys(Me2)]STG-X1), in assay [3], the Kd came to 1.27 mM. For the same compound, in assay [1], the result was Active. On to `CC(C)(C)NC(=O)[C@@H]1Cc2ccccc2CN1`, for which the Activity in assay [4] was more than 0.2 ppm. In assay [3], `CC(=O)NCc1cc(C)ccc1-n1c(C)nnc1C` came in with a dissociation constant Kd of 7.7 mM. This counts as millimolar.
